Measurements from patent US20240385177A1, “Screening Method Using Brown Adipocytes” (KATAOKA CORPORATION, priority 2021, published 2024).
“Also recorded” adds a separate entry of the source.

Test system: low-molecular-weight compound-induced brown adipocytes (ciBAs)
Assay: Evaluation of browning tendency of ciBAs directly induced from human fibroblasts (Ucp1/Fabp4/Cidea expression, UCP1 protein, induction efficiency, mtDNA, OCR)
Type: cell-based
Conditions: human fibroblasts cultured 3 weeks
Description: The human fibroblasts used as material were purchased from DS Pharma Biomedical, Co., Ltd. The fibroblasts are derived from human skin. The above human fibroblasts were seeded in 35 mm dishes coated with gelatin (Cat #: 190-15805, manufactured by FUJIFILM Wako Pure Chemical Co.) at 5×10^4, and cultured in DMEM medium (Cat #: 11965092; manufactured by Gibco) supplemented with 10% fetal bovine serum (FBS), 100 U/mL penicillin, 100 μg/mL streptomycin until 80% to 90% confluency at 37° C., 5% CO2.
Then, after the human fibroblasts reached 80 to 90% confluency, the medium in the dish was replaced with the serum-free brown adipocyte-inducing medium “SFBAM” described below, and the human fibroblasts were cultured in SFBAM for 3 weeks. To induce ciBA, SFBAM was further supplemented with rosiglitazone (selective PPARγ agonist; 184-02651, manufactured by FUJIFILM Wako Pure Chemical Corporation) at a final concentration of 1 μmol/L, forskolin (cAMP inducer; 063-02193) at a final concentration of 7.5 μmol/L and BMP7 (bone morphogenetic protein; 026-19171, manufactured by FUJIFILM Wako Pure Chemical Corporation) at a final concentration of 20 ng/mL, and human fibroblasts were cultured for 3 weeks. Separately, capsaicin (TRPV1 agonist; 030-11353, manufactured by FUJIFILM Wako Pure Chemical Corporation) and/or nonivamide (TRPV1 agonist; sc-202735, Santa Cruz Biotechnology (manufactured by Santa Cruz Biotechnology, CA, USA), capsazepine (TRPV1 antagonist; 037-23171, manufactured by FUJIFILM Wako Pure Chemical Corporation), AMG9810 (TRPV1 antagonist; 015-25071, FUJIFILM Wako Pure Chemical Corporation), GSK1016790A (TRPV4 agonist; G0798, manufactured by Sigma-Aldrich) were added and human fibroblasts were cultured for 3 weeks. Medium was changed every 3 days.
SFBAM is a serum-free brown adipocyte-inducing medium prepared by adding each ingredient in Table 1 to DMEM medium (Cat #: 11965092; manufactured by Gibco).
To quantify gene expression, total RNA was extracted from fibroblasts treated with each compound using the FastGene (registered trademark) RNA basic kit (manufactured by Nippon Genetics). As a control, fibroblasts were cultured in parallel using SFBAM and total RNA was extracted from compound-induced brown adipocytes and control cells. After reverse transcription by ReverTraAce (registered trademark) PCR RT Master Mix with gDNA Remover (manufactured by Toyobo), Real-time PCR analysis was performed using Power SYBR Green PCR Master Mix (manufactured by Thermo Fisher Scientific). Three reactions were performed per level under the following conditions. • After 10 minutes at 95° C., • The cycle time is 15 seconds at 95° C., followed by 60 seconds at 60° C., for 40 cycles.
All results were standardized by the amount of Tbp mRNA.
Immunocytochemistry was performed as previously reported (Dai P, et al. J Clin Biochem Nutr. 2015; 56(3): 166-70). First, cells were fixed with 4% paraformaldehyde (manufactured by Nacalai Tesque). After washed with phosphate-buffered saline (PBS) three times, the cells were incubated with PBS containing 0.1% Triton X-100 for 10 minutes. The cells were then blocked with PBS containing 3% skim milk for 1hour at room temperature. UCP-1 antibodies (ab10983, manufactured by Abcam, Cambridge, UK) were diluted 1/500 with the blocking solutions. The cells were incubated with the antibodies overnight at 4° C. […] All images were acquired using a fluorescence microscopy (BZ-X710-All-in-One Fluorescence Microscope, manufactured by Keyence). […]

[1] = TRPV1 antagonist added to culture with RoFB and capsaicin (25 μmol/L), FIGS. 8, 9
[2] = compound added to SFBAM with rosiglitazone, forskolin and BMP7 (RoFB), FIGS. 1-7, 10-12

SMILES	browning tendency of ciBAs [1]	browning tendency of ciBAs [2]
CC(C)(C)c1ccc(/C=C/C(=O)Nc2ccc3c(c2)OCCO3)cc1 [AMG9810]	suppressed the browning tendency	–
CC(C)C[C@H](NC(=O)c1cc2ccccc2s1)C(=O)N1CCN(C(=O)[C@H](CO)NS(=O)(=O)c2ccc(Cl)cc2Cl)CC1 [GSK1016790A]	–	suppressed; also recorded: inhibits adipocyte browning
COc1cc(CNC(=O)CCCC/C=C/C(C)C)ccc1O [capsaicin]	–	enhanced; also recorded: promotes adipocyte browning
Oc1cc2c(cc1O)CN(C(=S)NCCc1ccc(Cl)cc1)CCC2 [capsazepine]	suppressed the browning tendency	–
CCCCCCCCC(=O)NCc1ccc(O)c(OC)c1 [nonivamide]	–	increased the browning tendency
